# Data as given in ChEMBL document CHEMBL5512603, “Development of de-novo coronavirus 3-chymotrypsin-like protease (3CLpro) inhibitors since COVID-19 outbreak: A strategy to tackle challenges of persistent virus infection” (Eur J Med Chem, 2024).
# What was measured:
# [1] = molecular target: T1, Replicase polyprotein 1ab (Severe acute respiratory syndrome coronavirus 2, UniProt P0DTD1); assay: Inhibition of SARS-CoV-2 recombinant main protease; format: single protein
# [2] = molecular target: T1, Replicase polyprotein 1ab; assay: Inhibition of 2019-nCoV-2 3CLp using fluorescent substrate by FRET assay
# [3] = Oral bioavailability in Sprague-Dawley rat at 10 mg/kg; format: ADME, organism-based; conditions: in vivo
# [4] = molecular target: T1, Replicase polyprotein 1ab; assay: Inhibition of recombinant SARS-CoV-2 3CLp using fluorogenic substrate by microplate reader
# [5] = Cytotoxicity against African green monkey Vero E6 cells; format: toxicity, cell-based, Vero C1008; conditions: chlorocebus sabaeus
# [6] = molecular target: T1, Replicase polyprotein 1ab; assay: Inhibition of SARS-CoV-2 3CLp using fluorescent substrate by FRET assay
# [7] = test system: SARS-CoV-2; assay: Antiviral activity against SARS-CoV-2; format: functional, organism-based; conditions: Severe acute respiratory syndrome coronavirus 2
# [8] = test system: SARS-CoV-2; assay: Antiviral activity against SARS-CoV-2 infected in African green monkey Vero E6 cells assessed as inhibition of virus induced cytopathic effect by CellTiter-Glo luminescent cell viability assay; format: functional, organism-based; conditions: Severe acute respiratory syndrome coronavirus 2, Vero C1008
# [9] = molecular target: von Hippel-Lindau disease tumor suppressor-SARS-Cov-2 polyprotein (Severe acute respiratory syndrome coronavirus 2, UniProt P0DTD1+P40337); assay: PROTAC activity at SARS-CoV-2 Main protease/VHL (unknown origin) in SARS-CoV-2 infected african green monkey Vero cell assessed as inhibition of virus-mediated cytopathic effect measured after 72 hrs; format: cell-based
# Sequence of von Hippel-Lindau disease tumor suppressor-SARS-Cov-2 polyprotein (P40337 whole entry, other chains not shown): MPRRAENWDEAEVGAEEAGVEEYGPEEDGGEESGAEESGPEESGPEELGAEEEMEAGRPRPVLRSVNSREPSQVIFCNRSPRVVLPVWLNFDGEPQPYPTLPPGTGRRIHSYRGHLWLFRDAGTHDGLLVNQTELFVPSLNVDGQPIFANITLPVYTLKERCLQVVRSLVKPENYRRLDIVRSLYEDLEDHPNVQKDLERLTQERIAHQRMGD
compound,measurement,setting,value
O=c1[nH]cc(-c2cc(-c3cc(Cl)cc(COc4ccccc4)c3)c(=O)n(-c3cccnc3)c2)c(=O)[nH]1,IC50,[1],128 nM
Cn1cc2cc(/N=c3\[nH]c(=O)n(Cc4nnn[nH]4)c(=O)n3Cc3cc(F)c(F)cc3F)c(Cl)cc2n1,IC50,[2],120 nM
CC1(C)[C@@H]2[C@@H](C(=O)N[C@H](C=O)C[C@@H]3CCNC3=O)N(C(=O)COc3ccc(Cl)cc3)C[C@@H]21,bioavailability,[3],4.8%
same,IC50,[4],9 nM
CC(C)(C)NC(=O)[C@@H](c1cnccn1)N(C(=O)c1ccco1)c1ccc(-c2ccccc2)cc1,IC50,[2],280 nM
same,CC50,[5],> 200000 nM
N#Cc1ccccc1-c1cc(-c2cccc(Cl)c2)cn(-c2cccnc2)c1=O,IC50,[1],9990 nM
CCn1nncc1Cn1c(=O)[nH]/c(=N\c2cc3cn(C)nc3cc2Cl)n(Cc2cc(F)c(F)cc2F)c1=O,IC50,[2],123 nM
O=c1c(O)c(-c2cc(O)c(O)c(O)c2)oc2cc(OCC3CCCC3)cc(O)c12,IC50,[6],2450 nM
same,EC50,[7],7560 nM
CC(C)[C@H]1C(=O)N2C[C@]3(C[C@H]2C#N)C(=O)Nc2ccc(cc23)CCCCCN1C(=O)c1cc2c(F)cc(F)cc2[nH]1,IC50,[6],< 100 nM
same,EC50,[8],< 100 nM
Cc1cccc(OCc2cc(Cl)cc(-c3cc(-c4c[nH]c(=O)[nH]c4=O)cn(-c4cccnc4)c3=O)c2)c1,IC50,[1],110 nM
O=c1[nH]cc(-c2cc(-c3cc(Cl)cc(COc4ccccc4F)c3)c(=O)n(-c3cccnc3)c2)c(=O)[nH]1,IC50,[1],24 nM
Cc1ncsc1-c1ccc(CNC(=O)[C@@H]2C[C@@H](O)CN2C(=O)[C@@H](NC(=O)CCOCCOCCOCCn2nnc(COc3ccc(OC(=O)N[C@@H](CC(C)C)C(=O)N[C@H](CO)C[C@@H]4CCNC4=O)cc3)c2C)C(C)(C)C)cc1,EC50,[9],750 nM
CC1COP(=O)(Oc2cc(O)c3c(=O)c(O)c(-c4cc(O)c(O)c(O)c4)oc3c2)OC1 (configuration not stated),IC50,[6],6620 nM
same,EC50,[7],33400 nM
Cc1ncsc1-c1ccc(CNC(=O)[C@@H]2C[C@@H](O)CN2C(=O)[C@@H](NC(=O)CCC(=O)NCCOCCn2nnc(COc3ccc(OC(=O)N[C@@H](CC(C)C)C(=O)N[C@H](C=O)C[C@@H]4CCNC4=O)cc3)c2C)C(C)(C)C)cc1,EC50,[9],120 nM
CC1(C)[C@@H]2[C@@H](C(=O)N[C@H](C=O)C[C@@H]3CCNC3=O)N(C(=O)COc3ccc(Cl)cc3Cl)C[C@@H]21,bioavailability,[3],4.1%
same,IC50,[4],10 nM
CC(C)(C)NC(=O)[C@@H](c1cccnc1)N(C(=O)c1ccno1)c1ccc(-c2ccccc2)cc1,IC50,[2],2470 nM
same,CC50,[5],> 200000 nM
CC(C)(C)c1ccc(N(C(=O)c2ccco2)[C@@H](C(=O)NC2CCCCC2)c2cccnc2)cc1,IC50,[2],2390 nM
same,CC50,[5],18200 nM
C[C@H](NC(=O)[C@@H](c1cccnc1)N(C(=O)c1ccco1)c1ccc(-c2ccccc2)cc1)c1ccccc1,IC50,[2],660 nM
same,CC50,[5],> 200000 nM
C[C@H](NC(=O)[C@@H](c1cccnc1)N(C(=O)c1ccco1)c1ccc(-n2cccc2)cc1)c1ccccc1,IC50,[2],940 nM
same,CC50,[5],> 200000 nM
CC(C)(C)c1ccc(N(C(=O)c2ccco2)[C@@H](C(=O)NC2CCCC2)c2cccnc2)cc1,IC50,[2],2510 nM
same,CC50,[5],101000 nM
O=C1c2c(O)cc(O)cc2O[C@H](c2cc(O)c(O)c(O)c2)[C@H]1O [AMPELOPSIN],EC50,[7],13600 nM
O=c1[nH]cc(-c2cc(-c3cc(Cl)cc(COc4c(F)cccc4F)c3)c(=O)n(-c3cccnc3)c2)c(=O)[nH]1,IC50,[1],36 nM
O=c1c(O)c(-c2cc(O)c(O)c(O)c2)oc2cc(OP(=O)(Oc3ccccc3)Oc3ccccc3)cc(O)c12,EC50,[7],3150 nM
Cc1ncsc1-c1ccc(CNC(=O)[C@@H]2C[C@@H](O)CC2C(=O)[C@@H](NC(=O)CCC(=O)NCCOCCn2nnc(COC(=O)N[C@@H](CC(C)C)C(=O)N[C@@H](C[C@@H]3CCNC3=O)C(O)S(=O)(=O)O)c2C)C(C)(C)C)cc1 (some centres not stated),EC50,[9],10100 nM
O=C[C@H](C[C@@H]1CCNC1=O)NC(=O)[C@@H]1[C@H]2CCC[C@H]2CN1C(=O)COc1ccc(Cl)cc1,bioavailability,[3],7.2%
same,IC50,[4],9 nM
Cc1ncsc1-c1ccc(CNC(=O)[C@@H]2C[C@@H](O)CN2C(=O)[C@@H](NC(=O)CCOCCOCCOCCn2nnc(COc3ccc(OC(=O)N[C@@H](CC(C)C)C(=O)N[C@H](C=O)C[C@@H]4CCNC4=O)cc3)c2C)C(C)(C)C)cc1,EC50,[9],80 nM
Cc1ncsc1-c1ccc(CNC(=O)[C@@H]2C[C@@H](O)CN2C(=O)[C@@H](NC(=O)CCOCCOCCOCCn2nnc(COC(=O)N[C@@H](CC(C)C)C(=O)N[C@H](C=O)C[C@@H]3CCNC3=O)c2C)C(C)(C)C)cc1,EC50,[9],950 nM
O=C[C@H](C[C@@H]1CCNC1=O)NC(=O)[C@@H]1[C@H]2CCC[C@H]2CN1C(=O)COc1ccc(Cl)c(Cl)c1,bioavailability,[3],5.1%
same,IC50,[4],19 nM
O=c1[nH]cc(-c2cc(-c3cc(Cl)cc(OCCc4ccccc4)c3)c(=O)n(-c3cccnc3)c2)c(=O)[nH]1,IC50,[1],37 nM
CC(C)(C)c1ccc(N(C(=O)c2ccco2)[C@@H](C(=O)NC2CC2)c2cccnc2)cc1,IC50,[2],3860 nM
same,CC50,[5],52800 nM
CCOC(=O)/C=C/C(=O)N(c1ccc(-c2ccccc2)cc1)[C@@H](C(=O)N[C@@H](C)c1ccccc1)c1cccnc1,IC50,[6],> 20000 nM
CC(C)[C@H]1C(=O)N2C[C@]3(C[C@H]2C#N)C(=O)Nc2ccc(cc23)CCCCCN1C(=O)c1cc2c(F)cc(F)c(F)c2[nH]1,IC50,[6],< 100 nM
same,EC50,[8],< 100 nM
O=c1[nH]cc(-c2cc(-c3cc(Cl)cc(COc4ccccc4Cl)c3)c(=O)n(-c3cccnc3)c2)c(=O)[nH]1,IC50,[1],18 nM
CC(C)COc1cc(Cl)cc(-c2cc(-c3c[nH]c(=O)[nH]c3=O)cn(-c3cccnc3)c2=O)c1,IC50,[1],190 nM
COc1cc(O)c2c(c1)O[C@H](c1cc(O)c(O)c(O)c1)[C@@H](O)C2=O,EC50,[7],11500 nM
C[C@H](NC(=O)[C@@H](c1cccnc1)N(C(=O)c1ccco1)c1ccc(C(C)(C)C)cc1)c1ccccc1,IC50,[2],5700 nM
N#C[C@@H]1C[C@]23CN1C(=O)[C@H](c1ccccc1)N(C(=O)C1CN(c4ccc(F)cc4)N=N1)CCCCCc1ccc(c2c1)NC3=O (some centres not stated),IC50,[6],< 100 nM
same,EC50,[8],> 1000 nM
CC(C)[C@H]1C(=O)N2C[C@]3(C[C@H]2C#N)C(=O)Nc2ccc(cc23)CCCCCN1C(=O)c1cc2ccc(C(F)(F)F)cc2[nH]1,IC50,[6],100 nM
same,EC50,[8],< 100 nM
Cc1ncsc1-c1ccc(CNC(=O)[C@@H]2C[C@@H](O)CN2C(=O)[C@@H](NC(=O)CCOCCOCCOCCn2nnc(COc3ccc(OC(=O)N[C@@H](CC(C)C)C(=O)N[C@@H](C[C@@H]4CCNC4=O)C(O)S(=O)(=O)O)cc3)c2C)C(C)(C)C)cc1 (some centres not stated),EC50,[9],210 nM
CC(C)CCOc1cc(O)c2c(=O)c(O)c(-c3cc(O)c(O)c(O)c3)oc2c1,IC50,[6],1920 nM
same,EC50,[7],31500 nM
Cc1ncsc1-c1ccc(CNC(=O)[C@@H]2C[C@@H](O)CN2C(=O)[C@@H](NC(=O)CCOCCOCCOCCn2nnc(COC3CCC(OC(=O)N[C@@H](CC(C)C)C(=O)N[C@H](C=O)C[C@@H]4CCNC4=O)CC3)c2C)C(C)(C)C)cc1 (some centres not stated),EC50,[9],350 nM
O=c1[nH]cc(-c2cc(-c3cc(Cl)cc(COc4cccc(F)c4)c3)c(=O)n(-c3cccnc3)c2)c(=O)[nH]1,IC50,[1],37 nM
CCn1nnnc1Cn1c(=O)[nH]/c(=N\c2cc3cn(C)nc3cc2Cl)n(Cc2cc(F)c(F)cc2F)c1=O,IC50,[2],160 nM
CC(C)(C)NC(=O)[C@@H](c1cccnc1)N(C(=O)c1cnco1)c1ccc(-c2ccccc2)cc1,IC50,[2],4970 nM
same,CC50,[5],67000 nM
O=C1c2c(O)cc(OP(=O)(Oc3ccccc3)Oc3ccccc3)cc2O[C@H](c2cc(O)c(O)c(O)c2)[C@H]1O,EC50,[7],9030 nM
C=C(Cl)C(=O)N(c1ccc(-c2ccccc2)cc1)[C@@H](C(=O)N[C@@H](C)c1ccccc1)c1cccnc1,IC50,[6],4220 nM
CC(C)(C)NC(=O)[C@@H](c1cccnc1)N(C(=O)c1c[nH]cn1)c1ccc(C(C)(C)C)cc1,IC50,[2],960 nM
same,CC50,[5],129000 nM
COc1cc(Cl)cc(-c2cc(-c3c[nH]c(=O)[nH]c3=O)cn(-c3cccnc3)c2=O)c1,IC50,[1],1000 nM
Cc1ccccc1OCc1cc(Cl)cc(-c2cc(-c3c[nH]c(=O)[nH]c3=O)cn(-c3cccnc3)c2=O)c1,IC50,[1],100 nM
CCC[C@H]1C(=O)N2C[C@]3(C[C@H]2C#N)C(=O)Nc2ccc(cc23)CCCCCN1C(=O)c1cc2c(F)cc(F)c(F)c2[nH]1,IC50,[6],< 100 nM
same,EC50,[8],< 100 nM
CC(C)[C@H]1C(=O)N2C[C@]3(C[C@H]2C#N)C(=O)Nc2ccc(cc23)CCCCCN1C(=O)C1CN(c2ccccc2)N=N1 (some centres not stated),IC50,[6],< 100 nM
same,EC50,[8],< 100 nM
CCOc1cc(O)c2c(=O)c(O)c(-c3cc(O)c(O)c(O)c3)oc2c1,IC50,[6],740 nM
same,EC50,[7],51000 nM
COc1cc(O)c2c(=O)c(O)c(-c3cc(O)c(O)c(O)c3)oc2c1,EC50,[7],12600 nM
COCCCc1cc(Cl)cc(-c2cc(-c3c[nH]c(=O)[nH]c3=O)cn(-c3cccnc3)c2=O)c1,IC50,[1],25 nM
C[C@H](NC(=O)[C@@H](c1cccnc1)N(C(=O)CCl)c1ccc(-c2ccccc2)cc1)c1ccccc1,IC50,[6],50 nM
